Here are results for four compounds from patent US11046651B2, “Piperazine substituted azapine derivatives and uses thereof” (Alairion, Inc., priority 2019, dated 2021).

A word on the Ki: it is a dissociation constant, usually derived from enzyme kinetics or from competition with a known ligand.

One experiment addresses D2 (Homo sapiens (Human), UniProt P14416). Put plainly: D2 binding assay ([3H] 7-OH-DPAT, HEK293 D2L membranes). The note with it: numeric values. The procedure:
D2 Binding Assay Protocol
The testing compounds were diluted with DMSO, starting at 2 mM, with 8-points and 5-fold serial dilutions. droperidol was diluted with DMSO, starting at 0.2 mM, with 8-points and 4-fold serial dilutions.
1 μL of a compound of the present disclosure and the reference compound (Table O) was transferred to an assay plate. 1 μL of droperidol was transferred to an assay plate according to the plate map for nonspecific binding (Low control: LC). 1 μL of DMSO was transferred to an assay plate according to the plate map for total binding (High control: HC). Following a plate map, 100 μL of the membrane stock solutions and radio ligand were added into the plate. The plates were sealed and shaken with 300 rpm.
(§1) Unifilter-96 GF/C filter plates were soaked with 50 μL of 0.3% PEI per well for about 0.5 hours at room temperature. When the binding assays were complete, the reaction mixture was filtered through the GF/B filter plates using Perkin Elmer Filtermate Harvester, and each plate was washed 4 times with cold wash buffer. The filter plates were dried for 1 hour at 50° C. After drying, the bottom of the filter plate wells were sealed using Perkin Elmer Unifilter-96 backing seal tape. 50 μL of Perkin Elmer Microscint 20 cocktail was added. The top of the filter plates were sealed with Perkin Elmer TopSeal-A sealing film.
^3H trapped on filters were counted using Perkin Elmer MicroBeta2 Reader. Inhibition constants were calculated using the following equation: […]
The data was analyzed using Prism 5. The model used was “log(inhibitor) vs. response—Variable slope” to fit the data and calculate IC50. The IC50 was then converted to Ki using the following equation: Ki=IC50/(1+L/Kd), wherein L is the radioligand concentration in the reaction system; Kd is the affinity of radioligand to the receptor. As shown in Table Q Compound No. 7 has a lower affinity for D2 when compared to Compounds A-2, A-3, A-4, and A-5.

For a further experiment, the target named is 5-HT2C (Homo sapiens (Human), UniProt P28335). Put plainly: 5-HT2C binding assay ([3H]-Mesulergine, HEK293 membranes). To be noted: numeric values. The procedure:
5-HT2C Binding Assay Protocol
The testing compounds were diluted with DMSO, starting at 2 mM, with 8-points and 5-fold serial dilutions.
1 μL of a compound of the present disclosure the reference compound (Table J) was transferred to an assay plate. […] 1 μL of DMSO was transferred to an assay plate according to the plate map for total binding (High control: HC).
as §1, with “GF/C” for “GF/B”
^3H trapped on filters were counted using Perkin Elmer MicroBeta2 Reader. Inhibition constants were calculated using the following equation:
[formula] The data was analyzed using Prism 5. The model used was “log(inhibitor) vs. response—Variable slope” to fit the data and calculate IC50. The IC50 was then converted to Ki using the following equation: Ki=IC50/(1+L/Kd), wherein L is the radioligand concentration in the reaction system; Kd is the affinity of radioligand to the receptor.

Sequence of 5-HT2C (P28335 33-458): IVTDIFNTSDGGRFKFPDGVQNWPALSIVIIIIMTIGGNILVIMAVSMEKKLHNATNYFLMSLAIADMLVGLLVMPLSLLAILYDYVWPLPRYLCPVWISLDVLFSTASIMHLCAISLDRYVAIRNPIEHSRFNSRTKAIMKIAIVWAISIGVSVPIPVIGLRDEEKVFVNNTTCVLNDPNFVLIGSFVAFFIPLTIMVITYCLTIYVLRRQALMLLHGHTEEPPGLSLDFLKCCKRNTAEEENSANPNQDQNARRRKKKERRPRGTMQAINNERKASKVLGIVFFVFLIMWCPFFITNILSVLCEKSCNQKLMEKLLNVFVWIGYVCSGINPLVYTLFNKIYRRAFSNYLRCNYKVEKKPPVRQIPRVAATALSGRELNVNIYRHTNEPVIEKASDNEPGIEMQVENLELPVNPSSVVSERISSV
Sequence of D2 (P14416 whole entry): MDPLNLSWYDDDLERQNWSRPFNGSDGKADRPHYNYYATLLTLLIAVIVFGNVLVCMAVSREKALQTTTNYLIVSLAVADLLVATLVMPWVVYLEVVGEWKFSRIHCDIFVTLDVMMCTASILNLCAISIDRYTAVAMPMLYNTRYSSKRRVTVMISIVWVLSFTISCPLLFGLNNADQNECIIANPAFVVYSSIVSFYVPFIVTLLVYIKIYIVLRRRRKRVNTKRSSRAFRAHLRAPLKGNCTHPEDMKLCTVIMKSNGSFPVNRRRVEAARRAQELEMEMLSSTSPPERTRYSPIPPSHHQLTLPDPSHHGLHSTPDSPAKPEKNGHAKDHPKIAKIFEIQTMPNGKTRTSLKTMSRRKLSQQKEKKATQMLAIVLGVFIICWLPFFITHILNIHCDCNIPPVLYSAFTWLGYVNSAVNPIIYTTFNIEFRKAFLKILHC

Consider `Cc1ccc2c(c1)N=C(N1CCN(CC(C)(C)C(=O)O)CC1)c1cc(C)ccc1O2` [A-2, 3-(4-(2,8-dimethyldibenzo[b,f][1,4]oxazepin-11-yl)piperazin-1-yl)-2,2-dimethylpropanoic acid, reference compound], for which the inhibitory constant (Ki) stood at 60 nM at D2 and 265 nM on 5-HT2C.
Take `Cc1ccc2c(c1)Oc1ccc(C)cc1C(N1CCN(CC(C)(C)C(=O)O)CC1)=N2` [A-3, 3-(4-(2,7-dimethyldibenzo[b,f][1,4]oxazepin-11-yl)piperazin-1-yl)-2,2-dimethylpropanoic acid, reference compound]: the inhibition constant (Ki) on D2 turned out to be 152 nM; on 5-HT2C, 125 nM.
The corresponding values for `Cc1ccc2c(c1)N=C(N1CCN(CC(C)(C)C(=O)O)CC1)c1ccc(C)cc1O2` [A-4, 3-(4-(3,8-dimethyldibenzo[b,f][1,4]oxazepin-11-yl)piperazin-1-yl)-2,2-dimethylpropanoic acid, reference compound] are 1900 nM and 772 nM.
The matching figures for `CC(C)(CN1CCN(C2=Nc3ccccc3Oc3ccccc32)CC1)C(=O)O` [A-5, 3-(4-(dibenzo[b,f][1,4]oxazepin-11-yl)piperazin-1-yl)-2,2-dimethylpropanoic acid, reference compound]: 2870 nM and 680 nM.
